Measured values from patent US20230277831A1, “Focused Ultrasound Device” (Washington University, priority 2022, published 2023).

Experiment: Evans blue delivery after FUS-BBBO, fluorescence imaging of brain sections
Type: in vivo, mice (C57BL/6)
Settings: mouse brain
Protocol: Following the FUS-BBBO treatment as described in Example 3, the brains of the mice were harvested and harvested sections were fluorescence imaged using an LI-COR imaging system (Pearl Trilogy; 700 Channel laser source (Ex 785 nm/Em 820 nm); resolution 85 μm). Enhanced fluorescence signals associated with the delivery of Evans blue through the FUS-disrupted BBB were determined by comparing sections from FUS-BBBO and corresponding untreated brain halves.
Evans Blue has been commonly used as a model drug for evaluating the FUS-BBBO drug delivery outcome. The harvested mouse brains were cut into 1-mm thick coronal sections using the mouse brain matrix (World Precision Instrument, Sarasota, Fla., USA). Fluorescence images of brain sections were taken using a LI-COR imaging system (Pearl Trilogy; 700 Channel laser source (Ex 785 nm/Em 820 nm); resolution 85 μm) and analyzed using Matlab (Mathworks, Natick, Mass., USA). […] Pixels with intensities above the background autofluorescence intensity were identified for each brain section. Evans blue delivery volume was calculated by the total number of pixels with enhanced fluorescence signal in all the brain sections. The mean fluorescence intensity of pixels with enhanced fluorescence signal in all the brain sections was calculated to represent the signal intensity of the delivered Evans blue.

For `Cc1cc(-c2ccc(/N=N/c3ccc4c(S(=O)(=O)O)cc(S(=O)(=O)O)c(N)c4c3O)c(C)c2)ccc1/N=N/c1ccc2c(S(=O)(=O)O)cc(S(=O)(=O)O)c(N)c2c1O` [Evans Blue], which “Evans Blue extravasation” value (FUS at 0.4 MPa and 0.57 MPa for all frequencies (1.5, 3.0, 6.0 MHz) and 0.2 MPa for 1.5 MHz) is on record?
Its value is “observed”.

And the “Evans Blue extravasation” value (FUS at 3.0 MHz and 6.0 MHz at 0.2 MPa)?
Its value is “not detectable”.

And the “Evans Blue delivery volume” value (i.v., FUS-BBBO at 1.5 MHz, 0.57 MPa (largest BBB opening volume), mean±SD)?
Its value is 69±3.8 mm^3.

What about the “Evans Blue signal intensity” value (i.v., FUS-BBBO at 1.5 MHz, 0.57 MPa, mean fluorescence intensity, mean±SD) of the same molecule?
Its value is 47±8.2.

What about the “Evans Blue delivery volume” value (i.v., FUS-BBBO at 6 MHz, 0.4 MPa (smallest BBB opening volume), mean±SD) of the same molecule?
Its value is 8.9±1.3 mm^3.
